Measurements taken from patent US8486962B2, “Antifungal agents” (F2G Ltd., priority 2005, dated 2013).
In brackets after ≈: the same amount, converted by molar mass. Where two headings read alike, the source gives them in different places.

Assays:
Assay type in all cases: cell-based
[1] = system: Aspergillus fumigatus AF293; experiment: MIC, YAG medium, Aspergillus fumigatus AF293; settings: YAG medium; for MIC: Aspergillus fumigatus, AF293, read-out: MIC A Fum. 293
Protocol: (§1) Measurement of Minimum Inhibitory Concentrations (MICs)
(§2) Between 1 and 5 mgs of compound were accurately weighed out into a sterile Eppendorf tube. The compound was dissolved in DMSO to give a solution containing 5 mg/ml. Tubes were stored at −20° C. until required.
(§3) On the day of testing thawed solutions were vortex mixed to ensure homogeneity. 30 μl of solution was removed and added to 570 μl of sterile water in a separate sterile Eppendorf. The thoroughly mixed solution was used to prepare a series of doubling dilutions in water, in a deep well plate. Eleven replicate plates were prepared using a Minitrak by aspirating 20 μl from each well into eleven clear polystyrene 96 well plates.
(§4) Spores of Aspergillus spp (Aspergillus fumigatus, Aspergillus terreus, Aspergillus niger and Aspergillus flavus) were harvested from cultures grown on Sabarauds agar for 5 days, and resuspended in PBS/Tween 80 to approx 1×10^7 cfu/ml Other filamentous fungi (Fusarium solani, Scedosporium spp., Trichophyton spp., Absidia corymbifera), were grown on Sabarauds agar for 2-10 days and spores/hyphae resuspended in PBS/Tween to give approx 1×10^7 cfU/ml. Candida species (Candida albicans, Candida glabrata, Candida krusei, Candida parapsilosis and Candida tropicalis) were grown on Sabarauds agar, cells were harvested from the agar using a sterile loop and resuspended in PBS/Tween 80 to approx 1×10^6 cfu/ml. Each organism suspension was diluted in RPMI medium, containing 2% glucose and 0.135M MOPS buffer (pH7.0) to 2×10^4 cfu/ml for Aspergillus spp and other filamentous fungi and 2×10^3 cfu/ml for yeast. 80 μl of an organism suspension was added to each well of the plate containing drug dilutions.
(§5) This produced MIC plates with a drug range 50-0.05 mg/L and organism inocula of 1-2×10^4 cfu/ml for Aspergillus spp and other filamentous fungi and 1-2×10^3 cfu/ml for yeasts. All plates were incubated for 24-48 hrs at 35° C. Growth was assessed by monitoring the optical density at 485 nm for each well. The MIC of a compound is the lowest drug concentration that inhibits growth of an organism by >80% compared with a drug free control. MICs are recorded as mg/L. Other growth media can be used for susceptibility testing, and the activity of the described compounds can also be assessed in a medium comprising, 1% glucose, 1% ammonium chloride and 0.5% yeast extract (YAG medium). To perform MIC tests in this medium, dilutions of compounds are prepared in microtitre plates as described above. Fungal strains to be tested are grown and harvested in an identical manner to that described above, each organism suspension is then diluted in YAG medium to 2×10^4 cfu/ml for Aspergillus spp and other filamentous fungi and 2×10^3 cfu/ml for yeast. 80 μl of an organism suspension was added to each well of the plate containing drug dilutions. This produced MIC plates with a drug range 50-0.05 mg/L and organism inocula of 1-2×10^4 cfu/ml for Aspergillus spp and other filamentous fungi and 1-2×10^3 cfu/ml for yeasts. All plates were incubated for 24 hrs at 35° C. Growth was assessed by monitoring the optical density at 485 nm for each well. The MIC of a compound is the lowest drug concentration that inhibits growth of an organism by >70% compared with a drug free control. MICs are recorded as mg/L. In cases where the MIC of an organism is […]0.05 mg/L the MIC is repeated using a concentration range of 0.5-0.0005 mg/L. MIC tests in YAG medium have more clear-cut endpoints and have slightly lower MICS than those performed in RPMI medium.
(§6) The following organisms were tested: Aspergillus fumigatus AF293 and Aspergillus fumigatus AF210, Aspergillus niger, Aspergillus terreus, Aspergillus favus, Candida albicans, Candida krusei, Candida tropicalis, Candida glabrata, Candida parapsilosis, Trichophyton rubrum, Trichophyton mentagrophytes, Scedosporium prolificans, Scedosporium apiospermum, Absidia corymbifera, Fusarium solani.

Aspergillus terreus = experiment: MIC, YAG medium, Aspergillus terreus; settings: YAG medium; for MIC: Aspergillus terreus
Protocol: as §1, §2, §3, §4, §5, §6

Aspergillus niger = experiment: MIC, YAG medium, Aspergillus niger; settings: YAG medium; for MIC: Aspergillus niger
Protocol: as §1, §2, §3, §4, §5, §6

[2] = system: Aspergillus fumigatus AF210; experiment: MIC, YAG medium, Aspergillus fumigatus AF210; settings: YAG medium; for MIC: Aspergillus fumigatus, AF210, read-out: MIC A Fum. 210
Protocol: as §1, §2, §3, §4, §5, §6

Aspergillus flavus = experiment: MIC, YAG medium, Aspergillus flavus; settings: YAG medium; for MIC: Aspergillus flavus
Protocol: as §1, §2, §3, §4, §5, §6

Row | SMILES | MIC [1] | MIC (Aspergillus terreus; read-out: MIC A Terreus 4) | MIC (Aspergillus niger; read-out: MIC A Niger 1) | MIC [2] | MIC (Aspergillus flavus; read-out: MIC A Flavus 01) | MIC (Aspergillus terreus; read-out: MIC A Terreus) | MIC (Aspergillus niger; read-out: MIC A Niger) | MIC (Aspergillus flavus; read-out: MIC A Flavus) | MIC A Fum. 293 [1] | MIC A Terreus 4 (Aspergillus terreus) | MIC A Niger 1 (Aspergillus niger) | MIC A Fum. 210 [2] | MIC A Flavus 01 (Aspergillus flavus)
1 | COc1cc(NC(=O)C(=O)c2c(-c3cccnc3)cc3ccccn23)cc(OC)c1OC [Example 226, 2-Oxo-2-(2-pyridin-3-yl-indolizin-3-yl)-N-(3,4,5-trimethoxy-phenyl)-acetamide] | > 50 µg/mL | 3.1 µg/mL (≈ 7.19 µM) | > 50 µg/mL | > 50 µg/mL | 1.6 µg/mL (≈ 3.71 µM) | – | – | – | – | – | – | – | –
2 | COc1ccc(NC(=O)C(=O)c2c(-c3ccco3)cc3ccccn23)cc1 [Example 164, 2-(2-Furan-2-yl-indolizin-3-yl)-N-(4-methoxy-phenyl)-2-oxo-acetamide] | > 50 µg/mL | > 50 µg/mL | 0.4 µg/mL (≈ 1.11 µM) | > 50 µg/mL | 0.4 µg/mL (≈ 1.11 µM) | – | – | – | – | – | – | – | –
3 | COC(=O)c1ccc(OC(=O)C(=O)c2c(-c3ccccc3)cc3ccccn23)cc1 [Example 177, 4-[2-Oxo-2-(2-phenyl-indolizin-3-yl)-acetoxy]-benzoic acid methyl ester] | 50 µg/mL (≈ 125 µM) | 6.25 µg/mL (≈ 15.6 µM) | 6.25 µg/mL (≈ 15.6 µM) | > 50 µg/mL | > 50 µg/mL | – | – | – | – | – | – | – | –
4 | O=C(C(=O)N1CCOCC1)c1c(-c2ccccc2)cc2ccccn12 [Example 300, 1-Morpholin-4-yl-2-(2-phenyl-indolizin-3-yl)-ethane-1,2-dione] | > 50 µg/mL | – | – | > 50 µg/mL | – | > 50 µg/mL | 25 µg/mL (≈ 74.8 µM) | > 50 µg/mL | – | – | – | – | –
5 | CON=C(C(=O)Nc1ccc(OC)cc1)c1c(-c2ccccc2)cc2ccccn12 (mixture of isomers) [Example 298, 2-[(E/Z)-Methoxyimino]-N-(4-methoxy-phenyl)-2-(2-phenyl-indolizin-3-yl)-acetamide] | – | – | – | – | – | – | – | – | 0.8 µg/mL | 0.2 µg/mL | 0.2 µg/mL | 0.8 µg/mL | 0.1 µg/mL

Continued by falling MIC [1], values first:

Row | MIC [1] | MIC (Aspergillus terreus; read-out: MIC A Terreus 4) | MIC (Aspergillus niger; read-out: MIC A Niger 1) | MIC [2] | MIC (Aspergillus flavus; read-out: MIC A Flavus 01) | MIC (Aspergillus terreus; read-out: MIC A Terreus) | MIC (Aspergillus niger; read-out: MIC A Niger) | MIC (Aspergillus flavus; read-out: MIC A Flavus) | MIC A Fum. 293 [1] | MIC A Terreus 4 (Aspergillus terreus) | MIC A Niger 1 (Aspergillus niger) | MIC A Fum. 210 [2] | MIC A Flavus 01 (Aspergillus flavus) | SMILES
6 | 50 µg/mL (≈ 125 µM) | 0.05 µg/mL (≈ 0.125 µM) | 0.8 µg/mL (≈ 2 µM) | > 50 µg/mL | 0.05 µg/mL (≈ 0.125 µM) | – | – | – | – | – | – | – | – | COc1ccc(NC(=O)C(=O)c2c(-c3ccccc3)cc3ccc(OC)cn23)cc1 [Example 239, N-(4-Methoxy-phenyl)-2-(6-methoxy-2-phenyl-indolizin-3-yl)-2-oxo-acetamide]
7 | 25 µg/mL (≈ 75.2 µM) | 6.25 µg/mL (≈ 18.8 µM) | 0.8 µg/mL (≈ 2.41 µM) | 6.25 µg/mL (≈ 18.8 µM) | 50 µg/mL (≈ 150 µM) | – | – | – | – | – | – | – | – | O=C(C(=O)N1CCCCC1)c1c(-c2ccccc2)cc2ccccn12 [Example 184, 1-(2-Phenyl-indolizin-3-yl)-2-piperidin-1-yl-ethane-1,2-dione]
8 | 6.25 µg/mL (≈ 15.6 µM) | 0.2 µg/mL (≈ 0.498 µM) | 1.6 µg/mL (≈ 3.99 µM) | 3.1 µg/mL (≈ 7.72 µM) | 0.1 µg/mL (≈ 0.249 µM) | – | – | – | – | – | – | – | – | COc1ccc(NC(=O)C(=O)c2c(-c3cccnc3)cc3ccccn23)c(OC)c1 [Example 174, N-(2,4-Dimethoxy-phenyl)-2-oxo-2-(2-pyridin-3-yl-indolizin-3-yl)-acetamide]
9 | 6.25 µg/mL (≈ 16.1 µM) | 0.2 µg/mL (≈ 0.514 µM) | 0.1 µg/mL (≈ 0.257 µM) | 1.6 µg/mL (≈ 4.11 µM) | 0.1 µg/mL (≈ 0.257 µM) | – | – | – | – | – | – | – | – | COc1ccc(NC(=O)C(=O)c2c(-c3ccc(F)cc3)cc3ccccn23)cn1 [Example 157, 2-[2-(4-Fluoro-phenyl)-indolizin-3-yl]-N-(6-methoxy-pyridin-3-yl)-2-oxo-acetamide]
10 | 1.6 µg/mL (≈ 4.34 µM) | 0.1 µg/mL (≈ 0.271 µM) | 0.4 µg/mL (≈ 1.09 µM) | 1.6 µg/mL (≈ 4.34 µM) | 0.4 µg/mL (≈ 1.09 µM) | – | – | – | – | – | – | – | – | Cc1ccc(NC(=O)C(=O)c2c(-c3ccccc3)cc3ccc(C)cn23)cc1 [Example 190, 2-(6-Methyl-2-phenyl-indolizin-3-yl)-2-oxo-N-p-tolyl-acetamide]
11 | 1.6 µg/mL (≈ 3.9 µM) | 0.05 µg/mL (≈ 0.122 µM) | 1.6 µg/mL (≈ 3.9 µM) | 0.8 µg/mL (≈ 1.95 µM) | 0.05 µg/mL (≈ 0.122 µM) | – | – | – | – | – | – | – | – | O=C(Nc1cc(Cl)cc(Cl)c1)C(=O)c1c(-c2cccnc2)cc2ccccn12 [Example 227, N-(3,5-Dichloro-phenyl)-2-oxo-2-(2-pyridin-3-yl-indolizin-3-yl)-acetamide]
